Like-named read-outs stand apart in the source and are kept apart here.
Key:
human TLR7 = human TLR7 (Homo sapiens (Human), UniProt Q9NYK1); test: TLR7 inhibition reporter assay (HEK-Blue cells, SEAP reporter, gardiquimod stimulation); assay type: cell-based
human TLR8 = human TLR8 (Homo sapiens (Human), UniProt Q9NR97); test: TLR8 inhibition reporter assay (HEK-Blue cells, SEAP reporter, R848 stimulation);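 note: compounds tested from 0.05 nM to 50 µM, 22 h at 37 °C, SEAP measured with HEK-Blue Detection, inhibition relative to agonist plus DMSO versus a known inhibitor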
human TLR9 = human TLR9 (Homo sapiens (Human), UniProt Q9NR96); test: TLR9 inhibition reporter assay (HEK-Blue cells, SEAP reporter, ODN2006 stimulation);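 note: compounds tested over 0.05 nM to 50 µM, 22 h incubation, inhibition taken as SEAP signal drop from agonist plus DMSO wells toward a known inhibitor control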
[1] = HEK-Blue cells overexpressing human TLR7, gardiquimod 7.5 μM
[2] = read-out: TLR8 IC50, HEK-Blue cells overexpressing human TLR8, R848 15.9 μM
[3] = read-out: TLR9 IC50, HEK-Blue cells overexpressing human TLR9, ODN2006 5 nM
[4] = HEK-Blue cells, gardiquimod 7.5 μM
[5] = read-out: TLR8 IC50, HEK-Blue cells, R848 15.9 μM
[6] = read-out: TLR9 IC50, HEK-Blue cells, ODN2006 5 nM

Chain of human TLR8 (Q9NR97 27-1041): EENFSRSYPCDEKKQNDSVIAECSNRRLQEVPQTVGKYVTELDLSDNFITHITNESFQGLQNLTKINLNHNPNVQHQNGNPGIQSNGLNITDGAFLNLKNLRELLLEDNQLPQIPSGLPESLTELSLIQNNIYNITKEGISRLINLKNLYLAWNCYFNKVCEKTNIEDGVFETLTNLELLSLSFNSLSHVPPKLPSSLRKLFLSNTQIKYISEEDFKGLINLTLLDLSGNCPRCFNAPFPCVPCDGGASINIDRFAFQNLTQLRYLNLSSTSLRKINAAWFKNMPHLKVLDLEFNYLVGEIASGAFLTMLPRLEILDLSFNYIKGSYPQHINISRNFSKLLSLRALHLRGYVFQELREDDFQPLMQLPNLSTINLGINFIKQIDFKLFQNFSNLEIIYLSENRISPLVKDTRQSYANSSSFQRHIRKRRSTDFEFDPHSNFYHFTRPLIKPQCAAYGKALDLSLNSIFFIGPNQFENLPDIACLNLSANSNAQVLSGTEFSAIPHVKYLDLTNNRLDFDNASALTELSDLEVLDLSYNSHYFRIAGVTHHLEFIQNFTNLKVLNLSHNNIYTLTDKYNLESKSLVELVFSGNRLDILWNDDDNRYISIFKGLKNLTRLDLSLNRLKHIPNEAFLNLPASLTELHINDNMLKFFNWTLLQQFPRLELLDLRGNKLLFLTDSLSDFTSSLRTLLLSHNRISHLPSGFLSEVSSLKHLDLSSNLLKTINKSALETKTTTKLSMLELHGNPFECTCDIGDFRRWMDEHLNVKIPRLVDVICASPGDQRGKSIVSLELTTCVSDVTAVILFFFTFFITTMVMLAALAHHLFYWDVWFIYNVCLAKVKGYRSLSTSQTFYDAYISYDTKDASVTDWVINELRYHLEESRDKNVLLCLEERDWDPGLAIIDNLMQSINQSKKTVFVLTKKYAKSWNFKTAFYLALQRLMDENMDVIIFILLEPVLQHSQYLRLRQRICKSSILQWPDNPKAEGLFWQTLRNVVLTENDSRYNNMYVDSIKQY
Chain of human TLR9 (Q9NR96 26-1032): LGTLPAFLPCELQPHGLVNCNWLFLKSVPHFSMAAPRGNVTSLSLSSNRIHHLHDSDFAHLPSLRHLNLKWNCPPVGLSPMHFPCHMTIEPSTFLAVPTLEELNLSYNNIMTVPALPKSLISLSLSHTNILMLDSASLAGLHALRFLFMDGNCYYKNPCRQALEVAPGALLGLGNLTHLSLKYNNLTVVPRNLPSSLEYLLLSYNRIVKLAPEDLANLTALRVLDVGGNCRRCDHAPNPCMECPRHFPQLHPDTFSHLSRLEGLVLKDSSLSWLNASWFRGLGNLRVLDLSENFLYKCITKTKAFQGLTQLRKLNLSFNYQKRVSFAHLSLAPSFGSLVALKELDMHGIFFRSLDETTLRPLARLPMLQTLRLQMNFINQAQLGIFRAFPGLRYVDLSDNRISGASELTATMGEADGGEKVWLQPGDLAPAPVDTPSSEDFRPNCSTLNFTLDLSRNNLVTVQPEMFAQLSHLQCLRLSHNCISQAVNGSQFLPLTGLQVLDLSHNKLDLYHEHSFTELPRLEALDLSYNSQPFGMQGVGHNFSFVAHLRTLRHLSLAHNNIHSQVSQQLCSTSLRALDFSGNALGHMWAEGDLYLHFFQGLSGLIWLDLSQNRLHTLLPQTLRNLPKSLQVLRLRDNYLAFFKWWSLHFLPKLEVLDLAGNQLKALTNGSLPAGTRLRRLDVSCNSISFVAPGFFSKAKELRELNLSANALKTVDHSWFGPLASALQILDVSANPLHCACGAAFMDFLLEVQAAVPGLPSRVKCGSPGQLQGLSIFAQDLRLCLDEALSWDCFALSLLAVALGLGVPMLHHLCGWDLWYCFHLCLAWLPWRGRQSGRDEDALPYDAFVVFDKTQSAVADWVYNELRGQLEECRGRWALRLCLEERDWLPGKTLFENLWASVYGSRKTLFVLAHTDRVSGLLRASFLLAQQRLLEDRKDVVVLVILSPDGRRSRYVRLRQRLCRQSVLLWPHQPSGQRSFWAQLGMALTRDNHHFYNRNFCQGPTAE
Chain of human TLR7 (Q9NYK1 27-1049): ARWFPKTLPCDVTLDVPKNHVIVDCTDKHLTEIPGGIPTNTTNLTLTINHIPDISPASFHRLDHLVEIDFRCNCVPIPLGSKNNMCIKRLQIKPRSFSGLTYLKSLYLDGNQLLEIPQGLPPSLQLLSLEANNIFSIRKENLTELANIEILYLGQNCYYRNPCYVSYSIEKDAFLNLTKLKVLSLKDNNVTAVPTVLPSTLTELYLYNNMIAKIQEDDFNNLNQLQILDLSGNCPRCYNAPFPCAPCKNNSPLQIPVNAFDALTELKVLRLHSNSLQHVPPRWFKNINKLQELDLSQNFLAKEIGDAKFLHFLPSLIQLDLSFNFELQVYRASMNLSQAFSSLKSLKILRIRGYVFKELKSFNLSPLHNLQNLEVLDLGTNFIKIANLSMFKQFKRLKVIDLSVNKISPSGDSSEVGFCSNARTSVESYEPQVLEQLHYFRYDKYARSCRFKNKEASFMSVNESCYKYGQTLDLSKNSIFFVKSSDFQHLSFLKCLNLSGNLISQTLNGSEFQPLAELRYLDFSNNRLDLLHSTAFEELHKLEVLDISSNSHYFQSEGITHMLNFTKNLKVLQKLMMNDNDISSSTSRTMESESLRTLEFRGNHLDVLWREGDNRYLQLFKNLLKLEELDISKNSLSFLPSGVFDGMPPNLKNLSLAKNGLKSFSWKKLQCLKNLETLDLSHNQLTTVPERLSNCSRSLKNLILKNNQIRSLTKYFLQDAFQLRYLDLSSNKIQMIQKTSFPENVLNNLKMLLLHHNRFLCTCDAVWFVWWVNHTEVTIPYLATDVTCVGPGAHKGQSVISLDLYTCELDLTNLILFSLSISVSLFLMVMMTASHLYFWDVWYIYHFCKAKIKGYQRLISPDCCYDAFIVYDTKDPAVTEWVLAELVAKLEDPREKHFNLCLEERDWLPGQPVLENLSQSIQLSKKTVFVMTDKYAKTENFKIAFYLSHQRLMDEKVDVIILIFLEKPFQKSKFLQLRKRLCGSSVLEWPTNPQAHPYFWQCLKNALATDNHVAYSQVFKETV

| IC50 (human TLR7; [1]) [nM] | IC50 (human TLR8; [2]) [nM] | IC50 (human TLR9; [3]) [nM] | IC50 (human TLR7; [4]) [nM] | IC50 (human TLR8; [5]) [nM] | IC50 (human TLR9; [6]) [nM] | SMILES |
| --- | --- | --- | --- | --- | --- | --- |
| 1310 | 383 | 124 |  |  |  | Cc1c(-c2ccncc2)[nH]c2ccc(C3CCN(C4CCN(CC(C)C)CC4)CC3)cc12 [Example 782, 5-(1′-isobutyl-[1,4′-bipiperidin]-4-yl)-3-methyl-2-(pyridin-4-yl)-1H-indole] |
| 790 | 117 | 282 |  |  |  | CCc1c(-c2ccnc(OC)c2)[nH]c2ccc(C3CCN(C4CCN(C5CCCC5)CC4)CC3)cc12 [Example 785, 5-(1′-cyclopentyl-[1,4′-bipiperidin]-4-yl)-3-ethyl-2-(2-methoxypyridin-4-yl)-1H-indole] |
| 309 | 50.4 | 206 |  |  |  | CCc1c(-c2ccnc(OC)c2)[nH]c2ccc(C3CCN(C4CCN(C(C)C)CC4)CC3)cc12 [Example 786, 3-ethyl-5-(1′-isopropyl-[1,4′-bipiperidin]-4-yl)-2-(2-methoxypyridin-4-yl)-1H-indole] |
| 599 | 269 | 408 |  |  |  | CCc1c(-c2ccnc(OC)c2)[nH]c2ccc(C3CCN(C4CCN(CC5CC5)CC4)CC3)cc12 [Example 789, 5-(1′-(cyclopropylmethyl)-[1,4′-bipiperidin]-4-yl)-3-ethyl-2-(2-methoxypyridin-4-yl)-1H-indole] |
| 1700 | 1410 | 1780 |  |  |  | CCc1c(-c2ccnc(OC)c2)[nH]c2ccc(C3CCN(C4CCN(C)CC4)CC3)cc12 [Example 790, 3-ethyl-2-(2-methoxypyridin-4-yl)-5-(1′-methyl-[1,4′-bipiperidin]-4-yl)-1H-indole] |
| 304 | 84.9 | 686 |  |  |  | CCc1c(-c2ccnc(OC)c2)[nH]c2ccc(C3CCN(C4CCN(CC)CC4)CC3)cc12 [Example 792, 3-ethyl-5-(1′-ethyl-[1,4′-bipiperidin]-4-yl)-2-(2-methoxypyridin-4-yl)-1H-indole] |
| 371 | 29.6 | 252 |  |  |  | CCc1c(-c2ccnc(OC)c2)[nH]c2ccc(C3CCN(C4CCCN(C5CCCC5)CC4)CC3)cc12 (stereo not drawn) [Example 793, 5-(1-(1-cyclopentylazepan-4-yl)piperidin-4-yl)-3-ethyl-2-(2-methoxypyridin-4-yl)-1H-indole] |
| 674 | 40.9 | 1100 |  |  |  | CCc1c(-c2ccnc(OC)c2)[nH]c2ccc(C3CCN([C@H]4CCCNCC4)CC3)cc12 [Example 794, (S)-5-(1-(azepan-4-yl)piperidin-4-yl)-3-ethyl-2-(2-methoxypyridin-4-yl)-1H-indole] |
| 129 | 12.5 | 851 |  |  |  | COc1cc(-c2[nH]c3ccc(C4CCN(C5CCN(C)CC5)CC4)cc3c2C(C)C)ccn1 [Example 795, 3-isopropyl-2-(2-methoxypyridin-4-yl)-5-(1′-methyl-[1,4′-bipiperidin]-4-yl)-1H-indole] |
| 154 | 13.9 | 563 |  |  |  | COc1cc(-c2[nH]c3ccc(C4CCN(C5CCN(CC6CC6)CC5)CC4)cc3c2C(C)C)ccn1 [Example 796, 5-(1′-(cyclopropylmethyl)-[1,4′-bipiperidin]-4-yl)-3-isopropyl-2-(2-methoxypyridin-4-yl)-1H-indole] |
| 141 | 23.1 | 596 |  |  |  | COc1cc(-c2[nH]c3ccc(C4CCN(C5CCN(C(C)C)CC5)CC4)cc3c2C(C)C)ccn1 [Example 797, 3-isopropyl-5-(1′-isopropyl-[1,4′-bipiperidin]-4-yl)-2-(2-methoxypyridin-4-yl)-1H-indole] |
| 1670 | 360 | 180 |  |  |  | COc1nccc(-c2[nH]c3ccc(C4CCN(C5CCN(CC(C)C)CC5)CC4)cc3c2C)c1OC [Example 799, 2-(2,3-dimethoxypyridin-4-yl)-5-(1′-isobutyl-[1,4′-bipiperidin]-4-yl)-3-methyl-1H-indole] |
| 167 | 185 | 729 |  |  |  | COc1cc(-c2[nH]c3ccc(C4CCN(C5CCNCC5)CC4)cc3c2C(C)C)ccn1 [Example 800, 5-([1,4′-bipiperidin]-4-yl)-3-isopropyl-2-(2-methoxypyridin-4-yl)-1H-indole] |
| 561 | 218 | 740 |  |  |  | CCN1CCC(N2CCC(c3ccc4[nH]c(-c5ccnc(OC)c5)c(C(C)C)c4c3)CC2)CC1 [Example 801, 5-(1′-ethyl-[1,4′-bipiperidin]-4-yl)-3-isopropyl-2-(2-methoxypyridin-4-yl)-1H-indole] |
| 389 | 99.3 | 487 |  |  |  | COc1cc(-c2[nH]c3ccc(C4CCN(C5CCN(C6CCCC6)CC5)CC4)cc3c2C(C)C)ccn1 [Example 802, 5-(1′-cyclopentyl-[1,4′-bipiperidin]-4-yl)-3-isopropyl-2-(2-methoxypyridin-4-yl)-1H-indole] |
| 79.7 | 333 | 986 |  |  |  | COc1cc(-c2[nH]c3ccc(C4CCN(C5CCN(CC(C)C)CC5)CC4)cc3c2C(C)C)ccn1 [Example 803, 5-(1′-isobutyl-[1,4′-bipiperidin]-4-yl)-3-isopropyl-2-(2-methoxypyridin-4-yl)-1H-indole] |
| 212 | 11.2 | 82 |  |  |  | CCc1c(-c2ccncc2)[nH]c2ccc(C3CCN(C4CCN(C(C)C)CC4)CC3)cc12 [Example 804, 3-ethyl-5-(1′-isopropyl-[1,4′-bipiperidin]-4-yl)-2-(pyridin-4-yl)-1H-indole] |
| 226 | 8.6 | 117 |  |  |  | CCc1c(-c2ccncc2)[nH]c2ccc(C3CCN(C4CC(C)(C)NC(C)(C)C4)CC3)cc12 [Example 807, 3-ethyl-2-(pyridin-4-yl)-5-(2′,2′,6′,6′-tetramethyl-[1,4′-bipiperidin]-4-yl)-1H-indole] |
|  |  |  | 145 | 16.2 | 19 | Cc1cc(-c2[nH]c3ccc(C4CCN(C5CCN(CC(C)C)CC5)CC4)cc3c2C)ccn1 [Example 810, 5-(1′-isobutyl-[1,4′-bipiperidin]-4-yl)-3-methyl-2-(2-methylpyridin-4-yl)-1H-indole] |
|  |  |  | 117 | 47.2 | 23 | Cc1cc(-c2[nH]c3ccc(C4CCN(C5CCN(C(C)C)CC5)CC4)cc3c2C)ccn1 [Example 811, 5-(1′-isopropyl-[1,4′-bipiperidin]-4-yl)-3-methyl-2-(2-methylpyridin-4-yl)-1H-indole] |
|  |  |  | 404 | 44.5 | 35 | Cc1nccc(-c2[nH]c3ccc(C4CCN(C5CCN(C(C)C)CC5)CC4)cc3c2C)c1C [Example 812, 2-(2,3-dimethylpyridin-4-yl)-5-(1′-isopropyl-[1,4′-bipiperidin]-4-yl)-3-methyl-1H-indole] |
|  |  |  | 533 | 114 | 42 | Cc1cc(-c2[nH]c3ccc(C4CCN(C5CCN(C(C)C)CC5)CC4)cc3c2C)cc(C)n1 [Example 813, 2-(2,6-dimethylpyridin-4-yl)-5-(1′-isopropyl-[1,4′-bipiperidin]-4-yl)-3-methyl-1H-indole] |
|  |  |  | 50.7 | 2.4 | 101 | Cc1cc(-c2[nH]c3ccc(C4CCN(C5CCN(C(C)C)CC5)CC4)cc3c2C)c(C)cn1 [Example 814, 2-(2,5-dimethylpyridin-4-yl)-5-(1′-isopropyl-[1,4′-bipiperidin]-4-yl)-3-methyl-1H-indole] |
|  |  |  | 124 | 73.4 | 313 | CNCCN1CCC(c2ccc3[nH]c(-c4ccnc(C)c4)c(C)c3c2)CC1 [Example 815, N-methyl-2-(4-(3-methyl-2-(2-methylpyridin-4-yl)-1H-indol-5-yl)piperidin-1-yl)ethan-1-amine] |
|  |  |  | 215 | 47.3 | 86 | Cc1nc[nH]c1CN1CCC(c2ccc3[nH]c(-c4ccnc(N)c4)c(C(C)C)c3c2)CC1 [Example 816, 4-(3-isopropyl-5-(1-((4-methyl-1H-imidazol-5-yl)methyl)piperidin-4-yl)-1H-indol-2-yl)pyridin-2-amine] |
|  |  |  | 224 | 56 | 177 | CC(C)c1c(-c2ccnc(N)c2)[nH]c2ccc(C3CCN(Cc4cnc[nH]4)CC3)cc12 [Example 817, 4-(5-(1-((1H-imidazol-5-yl)methyl)piperidin-4-yl)-3-isopropyl-1H-indol-2-yl)pyridin-2-amine] |
|  |  |  | 283 | 53.3 | 230 | Cc1ncc(CN2CCC(c3ccc4[nH]c(-c5ccnc(N)c5)c(C(C)C)c4c3)CC2)[nH]1 [Example 818, 4-(3-isopropyl-5-(1-((2-methyl-1H-imidazol-5-yl)methyl)piperidin-4-yl)-1H-indol-2-yl)pyridin-2-amine] |
|  |  |  | 415 | 588 | 712 | CC(C)c1c(-c2ccnc(N)c2)[nH]c2ccc(C3CCN(C(=O)C4CCNCC4)CC3)cc12 [Example 819, (4-(2-(2-aminopyridin-4-yl)-3-isopropyl-1H-indol-5-yl)piperidin-1-yl)(piperidin-4-yl)methanone] |

| SMILES | IC50 (human TLR7; [1]) [nM] | IC50 (human TLR8; [2]) [nM] | IC50 (human TLR9; [3]) [nM] | IC50 (human TLR7; [4]) [nM] | IC50 (human TLR8; [5]) [nM] | IC50 (human TLR9; [6]) [nM] |
| --- | --- | --- | --- | --- | --- | --- |
| CCc1c(-c2ccnc(OC)c2)[nH]c2ccc(C3CCN(C4C[C@H]5CC[C@@H](C4)N5C)CC3)cc12 (stereo partly drawn) [Example 791, 3-ethyl-2-(2-methoxypyridin-4-yl)-5-(1-((1R,3s,5S)-8-methyl-8-azabicyclo[3.2.1]octan-3-yl)piperidin-4-yl)-1H-indole] | 666 | 158 | 1600 |  |  |  |
| CCc1c(-c2ccnc(OC)c2)[nH]c2ccc(C3CCN(C4C[C@H]5CCC[C@@H](C4)N5C)CC3)cc12 (stereo partly drawn) [Example 798, 3-ethyl-2-(2-methoxypyridin-4-yl)-5-(1-((1R,3r,5S)-9-methyl-9-azabicyclo[3.3.1]nonan-3-yl)piperidin-4-yl)-1H-indole] | 624 | 165 | 67 |  |  |  |

From US10660877B2 (BRISTOL-MYERS SQUIBB COMPANY, priority 2016, dated 2020)
